This note sets out measurements from PMC4666645 (PLoS Pathogens, 2015).

“And” between values parts separate entries of the source, which are not always exact repeats. Equal entries are not always repeated. Structures can show the parent of a compound that is named as a salt. Where two headings read alike, the source gives them in different places.

For one test, the target named is Hco-26/27 receptor (Haemonchus contortus, UniProt A9XX30+S4VAP0). Kind of test: cell-based. The text has this:
In order to investigate if the overlapping expression contributed to functional receptors, we co-expressed Hco-ACR-26 and Hco-ACR-27 in Xenopus laevis oocytes. We have previously reported that the functional expression of nematode muscle AChRs in Xenopus oocytes requires the addition of ancillary proteins. Therefore, cRNAs encoding the subunits Hco-ACR-26 and Hco-ACR-27, in combination with three ancillary proteins (Hco-ric-3.1, Hco-unc-74 and Hco-unc-50) were co-injected into Xenopus oocytes. […] Subsequently, different cRNA combinations were injected into Xenopus oocytes in order to determine the minimal subunit combination leading to the expression of a functional receptor and verify the ancillary factor requirement.
The subunit stoichiometry has been previously reported to impact the pharmacological properties of some nematode AChRs expressed in Xenopus oocytes.
(§1) H. contortus and P. equorum acr-26 and acr-27 cDNAs were PCR-amplified using primers containing a restriction site in order to be sub-cloned into the expression vector pTB207 that is suitable for in vitro transcription. Primers are listed in S3 Table. The resulting plasmids were linearized with the NheI restriction enzyme (Fermantas) and used as templates for cRNA synthesis using the T7 mMessage mMachine kit (Ambion). Xenopus laevis ovaries were obtained from the University of Rennes, France (CRB Xenope) and defolliculated using 2 mg/ml collagenase type II (Gibco) in the incubation solution containing: 100 mM NaCl, 2 mM KCl, 1.8 mM CaCl2.2H2O, 1 mM MgCl2.6H2O, 5 mM HEPES, 2.5 mM C3H3NaO3, pH 7.5, supplemented with penicillin 100 U/mL and streptomycin 100 μg/mL). The oocytes were injected in the animal pole with a total volume of 36 nL of cRNA mix containing 50 ng/μL of each cRNA in RNase-free water using the Drummond nanoject II microinjector. Microinjected oocytes were kept at 20°C in incubation medium for 4 days to allow the receptors expression. Two-electrode voltage-clamp recordings were carried out using an Oocyte Clamp OC-725C amplifier (Warner instrument) in oocytes being voltage-clamped at -60mV. All agonist preparations were prepared with recording buffer (100 mM NaCl, 2.5 mM KCl, 1 mM CaCl2.2H2O, 5 mM HEPES, pH 7.3). Currents were recorded and analyzed using the pCLAMP 10.4 package (Molecular Devices).

For a further test, the target named is Peq-26/27 receptor (Parascaris equorum, UniProt A0A0U2ES47+A0A0U2ES58). Nature of the test: cell-based. The conditions noted are these: for Emax at 100 µM: read-out: Current elicited, % of ACh response. As to the method: In order to determine if ACR-26 and ACR-27 subunits from other parasitic nematodes species could also form functional receptors when expressed in Xenopus oocyte, Peq-acr-26 and Peq-acr-27 cRNAs from the distantly related P. equorum (Clade III) were co-injected in combination with Hco-ric-3.1, Hco-unc-74 and Hco-unc-50 cRNAs. Four days after injection, we observed robust expression of a functional AChR responding to 100 μM ACh (Fig 6B). […] This novel heteropentameric AChR was named Peq-26/27.
Peq-26/27 receptor, sequence (A0A0U2ES58 entry or part of it): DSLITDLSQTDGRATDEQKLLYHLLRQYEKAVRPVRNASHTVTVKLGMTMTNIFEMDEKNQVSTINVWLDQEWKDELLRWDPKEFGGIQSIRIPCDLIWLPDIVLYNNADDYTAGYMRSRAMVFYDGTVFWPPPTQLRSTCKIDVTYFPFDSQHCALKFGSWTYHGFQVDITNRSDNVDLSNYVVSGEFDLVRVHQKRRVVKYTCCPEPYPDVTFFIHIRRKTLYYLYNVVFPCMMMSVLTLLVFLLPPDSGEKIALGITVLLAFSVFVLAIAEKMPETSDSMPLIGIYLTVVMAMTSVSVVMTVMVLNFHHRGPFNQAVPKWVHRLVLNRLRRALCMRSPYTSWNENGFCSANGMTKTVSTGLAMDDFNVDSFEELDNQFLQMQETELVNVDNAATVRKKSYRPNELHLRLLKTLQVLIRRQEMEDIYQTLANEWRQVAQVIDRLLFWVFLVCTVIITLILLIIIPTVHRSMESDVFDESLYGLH
Peq-26/27 receptor, sequence (A0A0U2ES47 entry or part of it): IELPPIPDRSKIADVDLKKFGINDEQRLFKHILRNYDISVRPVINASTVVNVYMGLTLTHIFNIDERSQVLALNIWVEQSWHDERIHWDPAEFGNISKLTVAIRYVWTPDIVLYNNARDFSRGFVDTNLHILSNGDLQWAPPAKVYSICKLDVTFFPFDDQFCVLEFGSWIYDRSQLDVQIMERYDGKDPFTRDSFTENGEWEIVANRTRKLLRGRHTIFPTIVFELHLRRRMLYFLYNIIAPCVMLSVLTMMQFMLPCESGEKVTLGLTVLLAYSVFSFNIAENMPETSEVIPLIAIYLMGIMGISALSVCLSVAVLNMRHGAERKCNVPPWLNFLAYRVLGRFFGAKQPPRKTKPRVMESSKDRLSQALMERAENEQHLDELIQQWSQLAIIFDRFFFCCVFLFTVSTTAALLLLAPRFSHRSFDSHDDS
as §1

A further test has as its system C. elegans N2. Kind of test: Dose-response thrashing assay on wild-type C. elegans N2. The test is classed as in vivo, Caenorhabditis elegans. The conditions noted are these: for Minimal drug concentration causing significant reduction in wild-type motility: 10 min exposure. On the procedure:
Worms were maintained at 20°C on nematode growth medium (NGM) plates and fed on a bacterial lawn (Escherichia coli OP50). Bristol N2 was used as a reference wild-type C. elegans strain. Dose-response assays were performed on gravid adults placed in wells of a 96-well plate containing M9 salt solution (3 g/L KH2PO4, 6 g/L Na2HPO4, 5 g/L NaCl, and 1 mM MgSO4 with BSA at 0.1%) with varying anthelmintic concentrations. After 10 min, worm thrashing was counted for 1 min. A thrash was defined as a change in the direction of bending at the mid-body to return to the initial position. For each drug concentration, 30 worms were tested. Hco-acr-26, Hco-acr-27, Peq-acr-26 and Peq-acr-27 coding sequences were sub-cloned into the pPD96.52 (Addgene) vector containing the muscle promoter Pmyo3. Primer sequences containing the suitable restriction sites are listed in S3 Table. Extrachromosomal transgenic strains of C. elegans were obtained by micro-injecting DNA into the gonads of young adult hermaphrodite worms as described. N2 worms were injected with different mixes containing Pmyo3::Hco-acr-26; Pmyo3::Hco-acr-27; Pmyo3::Peq-acr-26; Pmyo3::Peq-acr-27 alone or in combination (Pmyo3::Hco-acr-26 + Pmyo3::Hco-acr-27 or Pmyo3::Peq-acr-26 + Pmyo3::Peq-acr-27) with a final concentration of 40 ng/μl for each plasmid. The plasmid pPD118.33_Pmyo2::gfp (Addgene) was co-injected at 25 ng/μl as a transformation marker. For each mixes, at least two independent lines were generated. For each line, thrashing assays were carried on at least 12 F1-worms carrying the selection marker. L4 larvae from N2 and transformed worms were transferred one day before the thrashing assay on NGM plate. One young adult was placed in each well of a 12-well plate containing M9 salt buffer. Thrashes produced by each worm during 1 minute were counted after a 10 minutes equilibration period. After drug application, thrashes were counted after 10, 20 and 30 minutes of exposure. Experimental data are shown as mean ± SEM. Statistical comparisons were done using the paired or unpaired Student’s t test or one-way ANOVA with Tukey’s multiple comparison test. A level of p<0.05 was considered significant. For each line, expression of the introduced acr-26 and/or acr-27 coding sequences from H. contortus or P. equorum was confirmed by RT-PCR experiments performed on 12 pooled worms. A partial sequence corresponding to the C. elegans endogenous AChR unc-38 transcript was amplified with primers designed on two independent exons in order to control the cDNA template quality. Primer sequences are listed in S3 Table.
Supplementary file ppat.1005267.s004.tif: S4 Fig Thrashing assays performed on C. elegans (N2) with different anthelmintic molecules. […] Thrashes of gravid wild-type adults were counted for one minute after 10 minutes of drug exposure. […] Results are expressed as mean ± SEM derived from three independent sets of experiments. For each treatment, 30 worms were included in the analysis. […] Statistical analyses were performed using a One-Way Anova with Tukey’s Multiple Comparison Test with **p<0.01, ***p<0.001. (TIF) Click here for additional data file.

The subject of test [1] is C. elegans expressing Hco-26/27. Kind of test: Thrashing assay on transgenic C. elegans expressing Hco-26/27. The format is in vivo, Caenorhabditis elegans. The text has this: Taking advantage of the absence of acr-26 and acr-27 homologs in the C. elegans genome, we used wild type N2 worms to express these two parasitic nematode AChR subunits. […] For Peq-ACR-26 and Peq-ACR-27, even though the localization of these subunits in Parascaris equorum remains to be investigated in more detail, we also used myo3 as a promoter in order to compare the functional impact of Hco-26/27 and Peq-26/27 on both motility and drug sensitivity in transgenic C. elegans.
Worms were maintained at 20°C on nematode growth medium (NGM) plates and fed on a bacterial lawn (Escherichia coli OP50). Bristol N2 was used as a reference wild-type C. elegans strain. Dose-response assays were performed on gravid adults placed in wells of a 96-well plate containing M9 salt solution (3 g/L KH2PO4, 6 g/L Na2HPO4, 5 g/L NaCl, and 1 mM MgSO4 with BSA at 0.1%) with varying anthelmintic concentrations. After 10 min, worm thrashing was counted for 1 min. A thrash was defined as a change in the direction of bending at the mid-body to return to the initial position. For each drug concentration, 30 worms were tested. Hco-acr-26, Hco-acr-27, Peq-acr-26 and Peq-acr-27 coding sequences were sub-cloned into the pPD96.52 (Addgene) vector containing the muscle promoter Pmyo3. Primer sequences containing the suitable restriction sites are listed in S3 Table. Extrachromosomal transgenic strains of C. elegans were obtained by micro-injecting DNA into the gonads of young adult hermaphrodite worms as described. N2 worms were injected with different mixes containing Pmyo3::Hco-acr-26; Pmyo3::Hco-acr-27; Pmyo3::Peq-acr-26; Pmyo3::Peq-acr-27 alone or in combination (Pmyo3::Hco-acr-26 + Pmyo3::Hco-acr-27 or Pmyo3::Peq-acr-26 + Pmyo3::Peq-acr-27) with a final concentration of 40 ng/μl for each plasmid. The plasmid pPD118.33_Pmyo2::gfp (Addgene) was co-injected at 25 ng/μl as a transformation marker. […] Thrashes produced by each worm during 1 minute were counted after a 10 minutes equilibration period. After drug application, thrashes were counted after 10, 20 and 30 minutes of exposure. […]

The mark [2] stands for this setting: read-out: Relative maximal current (Imax) normalized to 100 μM acetylcholine, cRNA ratio 1:1 26/27, 100 μM agonist.
Setting [3] is: read-out: Relative maximal current (Imax) normalized to 100 μM acetylcholine, cRNA ratio 1:5 26/27, 100 μM agonist.
Setting [4] is: read-out: Relative maximal current (Imax) normalized to 100 μM acetylcholine, cRNA ratio 5:1 26/27, 100 μM agonist.
[5] abbreviates: Caenorhabditis elegans, 10 min, 10 min drug exposure, gravid adults, read-out: IC50 (reduction of thrashing).
Setting [6] is: read-out: Current elicited, % of ACh response, 100 μM agonist, normalized to 100 μM ACh current, equal subunit ratio.

Hco-26/27 receptor, sequence (A9XX30 entry or part of it): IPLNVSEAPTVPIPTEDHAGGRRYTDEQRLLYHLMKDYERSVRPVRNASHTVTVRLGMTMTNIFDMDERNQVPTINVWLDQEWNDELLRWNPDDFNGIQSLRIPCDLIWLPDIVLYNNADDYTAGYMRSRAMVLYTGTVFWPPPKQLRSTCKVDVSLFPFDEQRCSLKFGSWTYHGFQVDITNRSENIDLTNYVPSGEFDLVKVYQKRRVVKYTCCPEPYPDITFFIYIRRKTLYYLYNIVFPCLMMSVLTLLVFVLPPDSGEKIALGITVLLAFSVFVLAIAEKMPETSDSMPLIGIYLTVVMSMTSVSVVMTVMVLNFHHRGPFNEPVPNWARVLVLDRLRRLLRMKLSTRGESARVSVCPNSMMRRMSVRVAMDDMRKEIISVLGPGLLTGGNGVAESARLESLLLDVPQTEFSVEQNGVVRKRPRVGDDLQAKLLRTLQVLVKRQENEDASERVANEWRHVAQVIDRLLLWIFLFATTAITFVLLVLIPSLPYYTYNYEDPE
Hco-26/27 receptor, sequence (S4VAP0 entry or part of it): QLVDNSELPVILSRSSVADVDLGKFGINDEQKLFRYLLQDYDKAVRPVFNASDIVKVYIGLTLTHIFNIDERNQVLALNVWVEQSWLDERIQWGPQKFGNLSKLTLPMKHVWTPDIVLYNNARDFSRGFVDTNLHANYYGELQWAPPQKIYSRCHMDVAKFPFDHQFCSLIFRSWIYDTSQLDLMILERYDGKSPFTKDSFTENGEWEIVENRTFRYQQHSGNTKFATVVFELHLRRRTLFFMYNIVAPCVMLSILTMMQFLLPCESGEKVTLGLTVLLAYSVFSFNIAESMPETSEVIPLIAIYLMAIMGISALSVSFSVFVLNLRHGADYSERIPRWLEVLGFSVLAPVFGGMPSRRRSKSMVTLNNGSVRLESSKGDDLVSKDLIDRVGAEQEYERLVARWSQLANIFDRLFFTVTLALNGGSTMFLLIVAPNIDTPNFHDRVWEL

A word on the EC50: it is the concentration that produces a half-maximal response. The IC50 is the concentration needed to halve the response being measured. Consider `c1ccc([C@H]2CN3CCSC3=N2)cc1` [Lev, (-)-tetramisole hydrochloride], for which, on Hco-26/27 receptor (100 μM agonist, normalized to 100 μM ACh current, equal subunit ratio), the “Current elicited, % of ACh response” value is given as “insensitive”. The Emax at 100 µM at Hco-26/27 receptor (setting [2]) came to 3.46 ± 1.44%; on Hco-26/27 receptor (setting [3]), 4.18 ± 2.89%; on Hco-26/27 receptor (setting [4]), 1.77 ± 1.77%; at Peq-26/27 receptor, 24.5 ± 2.4%. For the same compound, the EC50 at Peq-26/27 receptor (EC50, responses normalized to 1 mM ACh) is 16.7 µM and 17 µM. Also, the “Minimal drug concentration causing significant reduction in wild-type motility” value in the test on C. elegans N2 was 5 µM. The IC50 in the test on C. elegans N2 (setting [5]) stood at 7 ± 1.1 µM. The “Change in sensitivity versus N2” value in test [1] (5 μM Lev) is “no significant change”.

For `Cc1ccsc1/C=C/C1=NCCCN1C` [Mor, morantel], the EC50 at Hco-26/27 receptor amounted to 29 ± 1.3 µM. The “Imax reduction with fivefold increase of Hco-ACR-27 versus equal subunit ratios” value on Hco-26/27 receptor (100 μM, p<0.001) worked out at 2 fold. In addition, the Emax at 100 µM turned out to be 249 ± 11.5% on Hco-26/27 receptor (setting [6]); 249 ± 11.5% on Hco-26/27 receptor (setting [2]); 137 ± 19.7% at Hco-26/27 receptor (setting [3]); 265 ± 29.1% on Hco-26/27 receptor (setting [4]); 74.5 ± 4.9% on Peq-26/27 receptor. For the same compound, the “Minimal drug concentration causing significant reduction in wild-type motility” value in the test on C. elegans N2 amounted to 40 µM. Moreover, the concentration for half-maximal inhibition (IC50) turned out to be 44 ± 1.03 µM with C. elegans N2 (Caenorhabditis elegans, 10 min, read-out: IC50 (reduction of thrashing), 10 min drug exposure, gravid adults) and 44.1 ± 1 µM in the test with C. elegans N2 (read-out: IC50 (reduction of thrashing), 10 min drug exposure, gravid adults). Besides, the “Reduction of thrashing motility” value in test [1] (40 μM Mor, 10 minutes exposure) came out at 93.3%.

As for `CN1CCCN=C1/C=C/c1cccs1` [Pyr, pyrantel], the EC50 at Hco-26/27 receptor was determined as 6.8 ± 1.3 µM. For the same compound, the Emax at 100 µM was 81 ± 6.21% at Hco-26/27 receptor (setting [6]); 81 ± 6.21% on Hco-26/27 receptor (setting [2]); 83.1 ± 17.9% on Hco-26/27 receptor (setting [3]); 84.1 ± 8.54% on Hco-26/27 receptor (setting [4]); 21.8 ± 2.1% at Peq-26/27 receptor. In addition, the “Minimal drug concentration causing significant reduction in wild-type motility” value with C. elegans N2 was determined as 50 µM. For the same compound, the IC50 with C. elegans N2 (setting [5]) was determined as 107 ± 1.2 µM. Besides, the “Percentage reduction of thrashes min^-1” value in test [1] (50 μM Pyr, 10 minutes of drug exposure) came out at 65.4%.
